Experimental data from patent US20090291941A1, “Tyrosine Kinase Inhibitors” (priority 2005, published 2009).

Biological target: T1, human c-Met (Homo sapiens, UniProt P08581)
T1 construct: Recombinant GST-tagged cytosolic domains of human c-Met; 6xHis; made in house; host or cells: baculovirus system; Sf9 or Sf21 insect cells
Assay: In vitro c-Met kinase assay (homogeneous time-resolved fluorescence tyrosine kinase assay)
Type: biochemical
Conditions: recombinant GST-tagged cytosolic domain of c-Met, 0.2 nM enzyme, 50 μM MgATP, HTRF readout
Source text: Recombinant GST-tagged cytosolic domains of human c-Met and other receptor tyrosine kinases including mouse c-Met, human Ron, KDR, IGFR, EGFR, FGFR, Mer, TrkA and Tie2 are used to determine whether the compounds of the instant invention modulate the enzymatic activities of these kinases.
Soluble recombinant GST-tagged cytosolic domains of c-Met and other receptor tyrosine kinases are expressed in a baculovirus system (Pharmingen) according to a protocol recommended by the manufacturer. The c-DNA encoding each cytosolic domain is subcloned into a baculovirus expression vector (pGcGHLT-A, B or C, Pharmingen) containing an in frame 6× histidine tag and a GST tag. […] The protein concentrations of the fusion proteins are determined using Coomassie Plus Protein Assay (Pierce) with BSA as standard.
The kinase activities of c-Met and other kinases are measured using a modified version of the homogeneous time-resolved tyrosine kinase assay described by Park et al. (1999, Anal. Biochem. 269:94-104).
The procedure for determining the potency of a compound to inhibit c-Met kinase comprises the following steps: • 1. […] Read HTRF signals on a Victor reader (PerkinElmer) in HTRF mode after 60 min. • 6. IC50 is determined by fitting the observed relationship between compound concentration and HTRF signal with a 4-parameter logistic equation. […]

T1 sequence (P08581 956-1390 limits assumed): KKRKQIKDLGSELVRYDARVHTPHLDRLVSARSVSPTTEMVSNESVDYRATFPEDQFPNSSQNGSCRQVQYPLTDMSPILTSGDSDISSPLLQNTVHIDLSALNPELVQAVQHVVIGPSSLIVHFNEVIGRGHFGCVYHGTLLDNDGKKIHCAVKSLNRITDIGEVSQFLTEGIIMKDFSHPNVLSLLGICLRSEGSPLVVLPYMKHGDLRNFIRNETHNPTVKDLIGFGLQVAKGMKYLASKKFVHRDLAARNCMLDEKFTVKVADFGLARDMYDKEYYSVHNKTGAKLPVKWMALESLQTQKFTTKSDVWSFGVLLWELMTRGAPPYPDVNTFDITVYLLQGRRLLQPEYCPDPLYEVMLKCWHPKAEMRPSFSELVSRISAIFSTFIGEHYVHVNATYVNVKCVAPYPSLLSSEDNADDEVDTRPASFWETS

| Structure (SMILES) | IC50 [µM] |
| --- | --- |
| Nc1ccc2c(c1)C(=O)Nc1cc(-c3ccccc3)cnc1C=C2 [Compound 14, 8-amino-3-phenylpyrido[3,2-c][2]benzazocin-6(5H)-one] | < 50 |
| Nc1ccc2c(c1)NC(=O)c1cc(-c3ccccc3)cnc1C=C2 [Compound 15, 8-amino-3-phenylpyrido[3,2-c][1]benzazocin-5(6H)-one] | < 50 |
